Entries after “also recorded” stand apart in the source; their conditions may differ.
How the values were obtained:
Assay type in all cases: cell-based, influenza A
WT HA/G147R NA virus [1] = system: WT HA/G147R NA virus
[2] = system: PassMut HA/G147R NA virus
G147R NA-only VLPs = system: G147R NA-only VLPs
WT HA/G147R NA virus [3] = system: WT HA/G147R NA virus; remark: listed apart in the source
[4] = system: PassMut HA/G147R NA virus; remark: listed apart in the source

oseltamivir
inhibition of agglutination by oseltamivir (WT HA/G147R NA virus [1]): uninhibited at all oseltamivir concentrations tested | neutralization of infectivity (percent infectivity remaining) [2]: nearly completely neutralized by oseltamivir; also recorded: strongly neutralized at low nanomolar oseltamivir concentrations | oseltamivir concentration down to which agglutination was inhibited (G147R NA-only VLPs): 0.12 nM | reversal of agglutination by G147R VLPs (G147R NA-only VLPs): reversed the agglutination | neutralization of infectivity (percent infectivity remaining) (WT HA/G147R NA virus [3]): partially neutralized by oseltamivir; also recorded: intermediate phenotype | oseltamivir concentration down to which agglutination was inhibited [4]: 1.5 nM

Source: patent publication US20160199481A1 (priority 2013, published 2016)
